Assay results published in US5506102A (priority 1993, dated 1996).

Target: T1, human androgen receptor (Homo sapiens, UniProt P10275)
T1 sequence (P10275 1-920): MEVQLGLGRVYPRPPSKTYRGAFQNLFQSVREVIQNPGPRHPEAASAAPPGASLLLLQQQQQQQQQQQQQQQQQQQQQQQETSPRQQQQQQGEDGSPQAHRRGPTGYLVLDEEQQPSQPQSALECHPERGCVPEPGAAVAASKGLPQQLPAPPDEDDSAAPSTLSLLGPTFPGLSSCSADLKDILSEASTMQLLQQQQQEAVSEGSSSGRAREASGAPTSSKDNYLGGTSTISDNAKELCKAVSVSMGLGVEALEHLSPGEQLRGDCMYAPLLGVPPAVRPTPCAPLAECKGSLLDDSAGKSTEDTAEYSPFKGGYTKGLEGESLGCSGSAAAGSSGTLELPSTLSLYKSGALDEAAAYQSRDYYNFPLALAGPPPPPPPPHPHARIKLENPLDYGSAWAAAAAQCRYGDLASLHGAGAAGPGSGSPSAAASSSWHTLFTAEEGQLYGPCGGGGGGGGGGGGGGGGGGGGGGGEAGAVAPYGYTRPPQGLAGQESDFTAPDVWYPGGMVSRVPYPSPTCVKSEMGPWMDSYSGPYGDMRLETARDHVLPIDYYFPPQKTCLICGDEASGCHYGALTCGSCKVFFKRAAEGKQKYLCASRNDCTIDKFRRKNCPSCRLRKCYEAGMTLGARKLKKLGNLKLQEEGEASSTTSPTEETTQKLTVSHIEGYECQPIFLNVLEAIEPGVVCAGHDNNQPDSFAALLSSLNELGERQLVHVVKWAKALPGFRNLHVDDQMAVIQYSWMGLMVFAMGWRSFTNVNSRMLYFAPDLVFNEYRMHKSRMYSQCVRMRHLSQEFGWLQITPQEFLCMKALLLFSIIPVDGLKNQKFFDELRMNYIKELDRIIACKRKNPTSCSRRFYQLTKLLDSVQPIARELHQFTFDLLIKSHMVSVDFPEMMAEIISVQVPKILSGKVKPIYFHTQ
Assay: AR transcriptional activity on MMTV-LUC, CV-1 cells, AR co-expressed with PR-A
Type: cell-based
Conditions: AR plus PR-A, FIG. 10B
Procedure: FIGS. 10A-10B are a series of graphs showing CV-1 cells that were transiently transfected with an expression vector for the human androgen receptor (pRShAR) alone, or in combination with phPR-A together with 5 µg/ml of the MMTV-LUC reporter and 5 µg/ml of pCH110 as an internal control. […] The relative luciferase activity is calculated by dividing the normalized luciferase value at a given point by that obtained in the absence of transfected receptor or ligand. […] The data are presented as percent (%) activation, where 100% represents the maximal induction achieved by human androgen receptor at 10^ -8 M DHT. The experimental data represents mean values +/- the average deviation from the mean of quadruplicate estimations;
Cells were seeded in 12-well, 96-well or 10 cm tissue culture plates. […] 20 μg of DNA/ml of transfection buffer were used in each transfection reaction. In this mix, the concentration of the luciferase plasmids and that of the internal control plasmid pCH110 (Pharmacia, Inc.), which contains the gene for the β-galactosidase enzyme, remained constant ([…] of each plasmid DNA), while the receptor plasmid concentration varied as indicated for each experiment. […]

effect on DHT-induced AR activity in the presence of PR-A: increased by the introduction of PR-A
Structure (SMILES): CC#C[C@]1(O)CC[C@H]2[C@@H]3CCC4=CC(=O)CCC4=C3[C@@H](c3ccc(C(C)=O)cc3)C[C@@]21C [ZK112993]
